Data taken from patent US20260158102A1, “CYCLIC PEPTIDE DERIVATIVE COMPOSITION FOR TREATING OR PREVENTING NEUROPATHIC PAIN AND/OR INFLAMMATORY PAIN” (DKS Co. Ltd., priority 2022, published 2026).

Key:
[1] = test system: STZ-induced diabetic rats; test: von Frey test in rat STZ-induced diabetes model; format: in vivo; settings: for 50% withdrawal threshold by von Frey test: mean ± SE, n=10
Experimental: The activity of the compound of the present disclosure was evaluated according to the following procedure.
(§1) Compound 9 (50 mg/mL) was diluted with water for injection to obtain a 1 mg/mL administration specimen. For the specimens to be administered at 0.1 mg/mL and 0.01 mg/mL, the specimen to be administered at 1 mg/mL was diluted stepwise with water for injection. Each administration specimen was divided into PP disposable tubes every day and stored in a storehouse (freezer: MDF-MU339H-PJ, PHC Corporation) under the condition of freezing (−30° C. to −20° C., measured value: −26.4 to −24.5° C.). Preparation was performed on the day before the start of administration.
(§2) Water for injection was added to and dissolved in Pregabalin taken out from the capsule to obtain 2 mg/mL. It was prepared before use.
(§3) • Animal species: rat (SPF) • Strain: Crl: CD (SD) • Date of animal acquisition, gender, age in weeks, number of animals acquired, and weight range after 1 day of acquisition • First and second courses: Apr. 6, 2022, male, 7 weeks old, 35 animals, 217 to 237 g • Third and fourth courses: Apr. 13, 2022, male, 7 weeks old, 35 animals, 216 to 235 g • Source: […].
Among the animals having a 50% withdrawal threshold of 8 g or more in the von Frey test measured during the preliminary breeding period, two animals from young animals with animal numbers were assigned to non-diabetes-induced animals, and the remaining animals were assigned to diabetes-induced animals.
Among the diabetes-induced animals, animals having a blood glucose level of 300 mg/dL or less were excluded from the grouping subjects, and were grouped using a computer program (IBUKI, Nihon Bioresearch Center, Inc.) so that the body weight and the average blood glucose level of each group were approximately equal. That is, the animals for the first and second courses and the third and fourth courses were grouped into one non-diabetes animal for Group 1, and 5 […] animals for Groups 2 to 6. Note that the grouping was performed so that there were 4 examples in Group 1 and 10 examples in each of Groups 2 to 6.
• Administration method: Using a syringe (Terumo Corporation) equipped with a 25 G winged injection needle (Terumo Corporation), tail vein administration was performed. Note that a 0.75 mmol/L CAB solution was administered to a non-diabetes-induced control group.
(§4) • Dose volume: calculated at 2 mL/kg based on the body weight on the day of administration. • Number of times of administration: once • Day of administration: 7 days before the day of starting administration of the test substance.
• Administration method: Using a syringe (Terumo Corporation) equipped with a 25 G winged injection needle (Terumo Corporation), tail vein administration was performed. Note that physiological saline was administered to the non-diabetes control group and the diabetes control group.
(§5) • Dose volume: calculated at 1 mL/kg based on the body weight on the day of administration. • Number of times of administration: 9 times • Interval of administration: once every 3 days (evaluation was performed on the day after administration) • Day of starting administration: day 8 of STZ administration (day of STZ administration is counted as day 1).
• Administration method: Using a polypropylene disposable syringe (Terumo Corporation) equipped with a metal oral zonde for a rat (Fuchigami kikai Ltd.), forced oral administration was performed.
• Dose volume: calculated at 10 mL/kg based on the body weight on the day of administration. • Number of times of administration: Administration was performed once on the day of evaluation of neuropathic pain, twice in total, and on the other days of administration, a vehicle for a control substance (water for injection) was orally administered. […]

[2] = Observation of general condition in rat STZ-induced diabetes model; format: in vivo; settings: number of animals, 10 per group
Experimental: as §1, §2, §3, §4, §5
• Dose volume: calculated at 10 mL/kg based on the body weight on the day of administration. • Number of times of administration: Administration was performed once on the day of evaluation of neuropathic pain, twice in total, and on the other days of administration, a vehicle for a control substance (water for injection) was orally administered.
• Observation of general condition • Observation was performed once a day.

## CC[C@@]1(C)Oc2cc(ccc2O)C[C@H](NC)C(=O)N[C@@H](C(C)C)C(=O)N[C@@H]1C(=O)N[C@@H](CC(=O)O)C(=O)O [Compound 9]
[1]; 0.01 mg/kg iv group, Pre: before STZ administration
  50% withdrawal threshold by von Frey test: 14.6 ± 0.4 g
[1]; 0.01 mg/kg iv group, as compared with the non-diabetes control group (so in the source)
  change in the 50% withdrawal threshold (von Frey test): no significant change
[1]; 0.01 mg/kg iv once every 3 days from day 8, day 14 of STZ administration
  50% withdrawal threshold by von Frey test: 5.7 ± 0.5 g
[1]; 0.01 mg/kg iv once every 3 days from day 8, day 28 of STZ administration
  50% withdrawal threshold by von Frey test: 3.8 ± 0.2 g
[1]; 0.1 mg/kg iv group, Pre: before STZ administration
  50% withdrawal threshold by von Frey test: 13.1 ± 0.8 g
[1]; 0.1 mg/kg iv group, as compared with the non-diabetes control group (so in the source)
  change in the 50% withdrawal threshold (von Frey test): no significant change
[1]; 0.1 mg/kg iv once every 3 days from day 8, day 14 of STZ administration
  50% withdrawal threshold by von Frey test: 5.7 ± 0.5 g
[1]; 0.1 mg/kg iv once every 3 days from day 8, day 28 of STZ administration
  50% withdrawal threshold by von Frey test: 4.8 ± 0.4 g
[1]; 1 mg/kg iv group, Pre: before STZ administration
  50% withdrawal threshold by von Frey test: 13.5 ± 0.7 g
[1]; 1 mg/kg iv group, day 28 after STZ administration, as compared with the diabetes control group
  change in the 50% withdrawal threshold (von Frey test): significant increase
[1]; 1 mg/kg iv once every 3 days from day 8, day 14 of STZ administration
  50% withdrawal threshold by von Frey test: 5.8 ± 0.5 g
[1]; 1 mg/kg iv once every 3 days from day 8, day 28 of STZ administration
  50% withdrawal threshold by von Frey test: 6.7 ± 0.7 † g
[1]; STZ-induced diabetic rats, conclusion of the discussion
  effect on diabetic peripheral neuropathic pain: suppressing effect
[2]; 0.01 mg/kg iv, day 1 of STZ administration
  general condition: 10
[2]; 0.01 mg/kg iv, day 2 of STZ administration
  general condition: 10
[2]; 0.01 mg/kg iv, day 3 of STZ administration
  general condition: 10
[2]; 0.01 mg/kg iv, day 4 of STZ administration
  general condition: 10
[2]; 0.01 mg/kg iv, day 5 of STZ administration
  general condition: 10
[2]; 0.01 mg/kg iv, day 6 of STZ administration
  general condition: 10
[2]; 0.01 mg/kg iv, day 7 of STZ administration
  general condition: 10
[2]; 0.01 mg/kg iv, day 8 of STZ administration
  general condition: 10
[2]; 0.01 mg/kg iv, day 9 of STZ administration
  general condition: 10
[2]; 0.01 mg/kg iv, day 10 of STZ administration
  general condition: 10
[2]; 0.01 mg/kg iv, day 11 of STZ administration
  general condition: 10
[2]; 0.01 mg/kg iv, day 12 of STZ administration
  general condition: 10
[2]; 0.01 mg/kg iv, day 13 of STZ administration
  general condition: 10
[2]; 0.01 mg/kg iv, day 14 of STZ administration
  general condition: 10
[2]; 0.01 mg/kg iv, day 15 of STZ administration
  general condition: 10
[2]; 0.01 mg/kg iv, day 16 of STZ administration
  general condition: 10
[2]; 0.01 mg/kg iv, day 17 of STZ administration
  general condition: 10
[2]; 0.01 mg/kg iv, day 18 of STZ administration
  general condition: 10
[2]; 0.01 mg/kg iv, day 19 of STZ administration
  general condition: 10
[2]; 0.01 mg/kg iv, day 20 of STZ administration
  general condition: 10
[2]; 0.01 mg/kg iv, day 21 of STZ administration
  general condition: 10
[2]; 0.01 mg/kg iv, day 22 of STZ administration
  general condition: 10
[2]; 0.01 mg/kg iv, day 23 of STZ administration
  general condition: 10
[2]; 0.01 mg/kg iv, day 24 of STZ administration
  general condition: 10
[2]; 0.01 mg/kg iv, day 25 of STZ administration
  general condition: 10
[2]; 0.01 mg/kg iv, day 26 of STZ administration
  general condition: 10
[2]; 0.01 mg/kg iv, day 27 of STZ administration
  general condition: 10
[2]; 0.01 mg/kg iv, day 28 of STZ administration
  general condition: 10
[2]; 0.01 mg/kg iv, day 29 of STZ administration
  general condition: 10
[2]; 0.01 mg/kg iv, day 30 of STZ administration
  general condition: 10
[2]; 0.01 mg/kg iv, day 31 of STZ administration
  general condition: 10
[2]; 0.01 mg/kg iv, day 32 of STZ administration
  general condition: 10
[2]; 0.01 mg/kg iv, day 33 of STZ administration
  general condition: 10
[2]; 0.01 mg/kg iv, day 34 of STZ administration
  general condition: 10
[2]; 0.01 mg/kg iv, day 35 of STZ administration
  general condition: 10
[2]; 0.1 mg/kg iv, day 1 of STZ administration
  general condition: 10
[2]; 0.1 mg/kg iv, day 2 of STZ administration
  general condition: 10
[2]; 0.1 mg/kg iv, day 3 of STZ administration
  general condition: 10
[2]; 0.1 mg/kg iv, day 4 of STZ administration
  general condition: 10
[2]; 0.1 mg/kg iv, day 5 of STZ administration
  general condition: 10
[2]; 0.1 mg/kg iv, day 6 of STZ administration
  general condition: 10
[2]; 0.1 mg/kg iv, day 7 of STZ administration
  general condition: 10
[2]; 0.1 mg/kg iv, day 8 of STZ administration
  general condition: 10
